The values that follow come from paper PMC10364322, “Evaluation of chronic drug-induced electrophysiological and cytotoxic effects using human-induced pluripotent stem cell-derived cardiomyocytes (hiPSC-CMs)” (Frontiers in Pharmacology, 2023).

For the series, the system named is hiPSC-CMs (iCell-Cardiomyocytes^2). Kind of series: MEA impedance (cytotoxicity readout) in hiPSC-CMs.

Turning to `COc1nc(N)nc2c1ncn2[C@@H]1O[C@H](COP(=O)(N[C@@H](C)C(=O)OCC(C)(C)C)Oc2cccc3ccccc23)[C@@H](O)[C@@]1(C)O` (stereo partly drawn) [BMS-986094], the “Imp (impedance), % change from baseline” value is, setting by setting: (0.3 µM, 2h) -4±2%; (0.3 µM, 24h) -3±2%; (0.3 µM, 48h) -6±3%; (0.3 µM, 72h) -8±3%; (0.3 µM, 96h) -18±6%; (1 µM, 2h) -1±2%. Besides, the “Imp (impedance), % change from baseline” value is, setting by setting: (1 µM, 24h) -1±4%; (1 µM, 48h) -5±3%; (1 µM, 72h) -16±2%; (1 µM, 96h) -29±4%; (3 µM, 72h) -19±6 %; (3 µM, 96h) -38±5 %. The “Imp (impedance), % change from baseline” value is given as 3±5% (3 µM, 2h); 1±2% (3 µM, 24h); -5±3% (3 µM, 48h); 2±1% (10 µM, 2h); 4±4% (10 µM, 24h); 2±10 % (10 µM, 48h). Also, the “Imp (impedance), % change from baseline” value is listed as -11±12% (10 µM, 72h) and -41±20 % (10 µM, 96h).

For `Cc1cn(-c2cc(NC(=O)c3ccc(C)c(Nc4nccc(-c5cccnc5)n4)c3)cc(C(F)(F)F)c2)cn1` [Nilotinib], the “Imp (impedance), % change from baseline” value (0.01 µM, 2h) was -2±3%; the “Imp (impedance), % change from baseline” value (0.01 µM, 24h) is on record as -14±3%; the “Imp (impedance), % change from baseline” value (0.01 µM, 48h) is reported as -4±4%; the “Imp (impedance), % change from baseline” value (0.01 µM, 72h) was -4±15%; the “Imp (impedance), % change from baseline” value (0.01 µM, 96h) is -3±15%; the “Imp (impedance), % change from baseline” value (0.1 µM, 2h) is on record as -2±3%. Further, the “Imp (impedance), % change from baseline” value is, setting by setting: (0.1 µM, 24h) -12±3%; (0.1 µM, 48h) 4±10%; (0.1 µM, 72h) -6±4%; (0.1 µM, 96h) -1±5%; (0.3 µM, 2h) -1±3%; (0.3 µM, 24h) -11±5%. The “Imp (impedance), % change from baseline” value by setting is: (0.3 µM, 48h) 3±7%; (0.3 µM, 72h) -2±4%; (0.3 µM, 96h) -1±5%; (1 µM, 2h) 4±7%; (1 µM, 24h) -8±6%; (1 µM, 48h) 13±17 %. Moreover, the “Imp (impedance), % change from baseline” value stood at 2±5 % (1 µM, 72h) and 4±14% (1 µM, 96h). Further, the effect on impedance entry (all concentrations tested, up to 96 h) was “without relevant changes to impedance”.

Consider `CC(C)(Sc1cc(C(C)(C)C)c(O)c(C(C)(C)C)c1)Sc1cc(C(C)(C)C)c(O)c(C(C)(C)C)c1` [Probucol], for which the “Imp (impedance), % change from baseline” value (0.3 µM, 2h) was 2±2%; the “Imp (impedance), % change from baseline” value (0.3 µM, 24h) is -4±4%; the “Imp (impedance), % change from baseline” value (0.3 µM, 48h) is listed as -3±7 %; the “Imp (impedance), % change from baseline” value (0.3 µM, 72h) is -4±6%; the “Imp (impedance), % change from baseline” value (0.3 µM, 96h) is given as -3±10%; the “Imp (impedance), % change from baseline” value (1 µM, 2h) is recorded as -1±2%. The “Imp (impedance), % change from baseline” value was -6±4% (1 µM, 24h); -3±3% (1 µM, 48h); -8±3% (1 µM, 72h); -2±5% (1 µM, 96h); -10±2% (3 µM, 72h); -7±2% (3 µM, 96h). Besides, the “Imp (impedance), % change from baseline” value is -2±3% (3 µM, 2h); -7±4% (3 µM, 24h); -5±4% (3 µM, 48h); -3±1% (10 µM, 2h); -7±4% (10 µM, 24h); -4±4% (10 µM, 48h). Besides, the “Imp (impedance), % change from baseline” value (10 µM, 72h) is reported as -12±3% and the “Imp (impedance), % change from baseline” value (10 µM, 96h) is -8±4%.

Turning to `N=C(N)c1ccc(OCCCCCOc2ccc(C(=N)N)cc2)cc1` [Pentamidine], the “Imp (impedance), % change from baseline” value reads like this: (0.1 µM, 2h) 6±3%; (0.1 µM, 24h) -2±5%; (0.1 µM, 48h) -5±4%; (0.1 µM, 72h) -6±3%; (0.1 µM, 96h) 1±6%; (0.3 µM, 2h) 6±2%. In addition, the “Imp (impedance), % change from baseline” value (0.3 µM, 24h) is listed as -3±4%; the “Imp (impedance), % change from baseline” value (0.3 µM, 48h) is on record as -4±4%; the “Imp (impedance), % change from baseline” value (0.3 µM, 72h) is -8±5%; the “Imp (impedance), % change from baseline” value (0.3 µM, 96h) is -5±3%; the “Imp (impedance), % change from baseline” value (1 µM, 2h) came to 5±2%; the “Imp (impedance), % change from baseline” value (1 µM, 24h) is given as -4±3%. In addition, the “Imp (impedance), % change from baseline” value was -6±4% (1 µM, 48h); -13±3% (1 µM, 72h); -18±5% (1 µM, 96h); -28±8 % (3 µM, 72h); -42±9 % (3 µM, 96h); 5±2% (3 µM, 2h). Also, the “Imp (impedance), % change from baseline” value (3 µM, 24h) was -4±2% and the “Imp (impedance), % change from baseline” value (3 µM, 48h) was -7±6%.

With `C#Cc1cccc(Nc2ncnc3cc(OCCOC)c(OCCOC)cc23)c1` [Erlotinib], the “Imp (impedance), % change from baseline” value reads like this: (0.3 µM, 2h) 0±3%; (0.3 µM, 24h) -5±3%; (0.3 µM, 48h) -5±4%; (0.3 µM, 72h) -5±6%; (0.3 µM, 96h) -3±6%; (1 µM, 2h) 1±2%. Moreover, the “Imp (impedance), % change from baseline” value is given as -6±3% (1 µM, 24h); -2±5% (1 µM, 48h); -3±5% (1 µM, 72h); 1±9% (1 µM, 96h); -2±4% (3 µM, 72h); 0±6% (3 µM, 96h). For the same compound, the “Imp (impedance), % change from baseline” value runs as follows: (3 µM, 2h) 1±3%; (3 µM, 24h) -6±2%; (3 µM, 48h) -1±5%; (10 µM, 2h) 5±4%; (10 µM, 24h) -17±2 %; (10 µM, 48h) -13±3%. Further, the “Imp (impedance), % change from baseline” value (10 µM, 72h) is reported as -13±3% and the “Imp (impedance), % change from baseline” value (10 µM, 96h) is -10±2%. The effect on impedance entry (10 µM (highest concentration)) is “borderline decrease in impedance, which was statistically and physiologically significant only at the 24 h time point”.
